Results as given in patent US20090170899A1, “Stimulators of 5-HT4 receptors and uses thereof” (priority 2004, published 2009).

Legend:
[1] = system: hippocampal CA3 pyramidal neurons; assay: Response of hippocampal CA3 pyramidal neurons to WAY 100635 after 3-day treatments (5-HT1A tonus); format: in vivo, rat; details: for 5-HT1A-mediated inhibitory tonus in the hippocampus: Example 7, 3 days, prucalopride 2.5, citalopram 10, RS 67333 1.5 mg/kg/day
Experimental: FIGS. 8A to 8C. […] Single-cell extracellular recordings were performed in the CA3 region of chloral-hydrate anaesthetized rats by using multiple-barrel glass microelectrodes, combined with microiontophoretic pumps (with the central barrel used for recordings). Pyramidal neurons were identified according to the classical criteria (see Example 5, the experimental procedures). The 5-HT4 agonists were administered through the use of osmotic minipumps, inserted subcutaneously in the region of the back. Recordings were performed with the minipumps still in place. *p<0.05, **p<0.01, ***p<0.001 vs control, Dunnett's test. […] FIG. 8C is a typical example showing the response of a single pyramidal neuron to cumulative doses of WAY 100635, in a rat co-administered with RS 67333 (same treatment as above for FIG. 8A) and the 5-HT depleter para-chlorophenylalanine (pCPA; 150 mg/kg, i.p. once daily 72, 48 and 24 h before the recordings).
Drugs and Chemicals. The following compounds were used: GR 125487 sulphamate, prucalopride monohydrochloride, citalopram hydrobromide (gifts from Glaxo, Janssen and Lundbeck laboratories, respectively), RS 67333 hydrochloride (Tocris Cookson Inc., Ellisville, Mo., USA), WAY 100635 hydrochloride (Research Biochemicals, Natick, Mass., USA), pCPA methyl ester hydrochloride, BrdU (Sigma-Aldrich Canada, Oakville, Ontario, Canada). All compounds were diluted in distilled water. All drug dosages refer to the free base. For chronic treatments, prucalopride (2.5 mg/kg/day), RS 67333 (1.5 mg/kg/day) or the vehicle were delivered through osmotic minipumps (Alza, Palo Alto, Calif., USA), inserted subcutaneously in the region of the back under short-duration (≦5 min) halothane anesthesia. The 5-HT depleter PCPA was administered once daily at the dose of 150 mg/kg, i.p., 72, 48 and 24 h before the recordings. BrdU treatments consisted of two administrations per day (50 mg/kg, i.p. each, 8 h interval), starting from the day of minipump insertion until day 2 post-surgery.
(§1) Microiontophoresis and extracellular recordings from hippocampal CA3 pyramidal neurons. Recording and microiontophoresis were performed with five-barreled glass micropipettes broken back to 8-12 μm under microscope control. The central barrel was filled with the same solution as in the DRN and was used for extracellular unitary recordings. Pyramidal neurons were identified by their large amplitude (0.5-1.2 mV) and long-duration (0.8-1.2 ms) simple spikes alternating with complex spike discharges (Kandel and Spencer, 1961). The side barrels contained the following solutions: quisqualate (1.5 mM in 200 mM NaCl, pH 8), WAY 100635 (15 mM in 200 mM NaCl, pH 4), and 2 M NaCl used for automatic current balancing. Rats were mounted in the stereotaxic apparatus and the micropipettes were lowered at 4.2 mm lateral and 4.2 anterior to lambda into the CA3 sub-region of the dorsal hippocampus.
The firing activity of dorsal hippocampus pyramidal neurons was then recorded in the CA3 subfield, before and after systemic administration of the selective 5-HTLA antagonist WAY 100635.

[2] = system: hippocampal CA3 pyramidal neurons; assay: Acute i.v. prucalopride on firing of hippocampal CA3 pyramidal neurons, with microiontophoresis; format: in vivo, rat; details: prucalopride 1000 μg/kg i.v.
Experimental: FIGS. 9A to 9D. FIGS. 9A and 9C show a typical example (integrated firing rate histogram) of the response of a single hippocampal pyramidal neuron of the CA3 sub-field to an acute, intravenous administration of the selective 5-HT4 agonist prucalopride (1000 μg/kg), and its reversal by local, microiontophoretic application of the selective 5-HT1A antagonist WAY 100635 (A), or systemic injection of the selective 5-HT4 antagonist GR 125487 (1000 μg/kg, i.v.) (C). Single-cell extracellular recordings were performed in the CA3 region of chloral-hydrate anaesthetized rats by using multiple-barrel glass microelectrodes, combined with microiontophoretic pumps (with the central barrel used for recordings). Pyramidal neurons were identified according to the classical criteria (see Example 5, experimental procedures). FIGS. 9B and 9D show a summary of the effects as for FIGS. 9A and 9C, respectively. Bar histograms represent the mean (S.E.M.) percentage effect, calculated for each neuron with respect to its basal firing rate (i.e. 100% value), and the number in each column represents the number of neurons tested. *p<0.05 vs basal value, one-way ANOVA.
as §1
Involvement of endogenous 5-HT and hippocampal 5-HT1A receptors in the effect of 5-HT4 agonists. […] This interpretation is consistent with our own previous findings, showing that both acute and chronic (3-day) administration of the same compounds augment DRN 5-HT neuronal firing activity (Lucas and Debonnel, 2002; Lucas et al., 2005). It is also in keeping with observations from a single in vivo microdialysis study, where acute systemic injection of preferential 5-HT4 agonists increased hippocampal 5-HT efflux (Ge and Barnes, 1996). To further address this possibility, two additional series of experiments were conducted. First, the role of endogenous 5-HT was assessed by using the same protocol as above, in rats co-treated with RS 67333 (or its vehicle) and the 5-HT depleter para-chlorophenylalanine (pCPA). […] The ejection currents of quisqualate needed to activate CA3 pyramidal neurons were, in this case, similar to those used in controls (0 to −2 nA, FIG. 8C). We then tested the ability of a local application of WAY 100635, directly into the CA3 subfield through the use of microiontophoresis, to modify the effect of a 5-HT4 agonist. We chose not to use the previous protocol (i.e. chronic treatments), because, as shown above, the required quisqualate currents differ between the experimental groups. Even though all currents were balanced, it was not possible to exclude the possibility that the amount of quisqualate present in the vicinity of the electrode may have an influence on the quantity of WAY 100635 actually ejected, and/or on its ability to act on pyramidal neurons. For this reason, prucalopride was used acutely in naïve rats, at a dose known to induce a significant augmentation of DRN 5-HT neuronal activity (1000 μg/kg, i.v.) (Lucas and Debonnel, 2002). […]

[3] = cumulative i.v. WAY 100635 500 μg/kg, 3-day prucalopride 2.5 mg/kg/day or RS 67333 1.5 mg/kg/day

| SMILES | CA3 pyramidal neuron activity after WAY 100635 ([1]; 3-day RS 67333, as restated in the Discussion) | quisqualate ejection currents required to obtain basal firing ([1]; 3-day treated groups, controls 0 to −2 nA) [nA] | 5-HT1A-mediated inhibitory tonus in the hippocampus [1] | firing activity of CA3 pyramidal neurons after WAY 100635 ([1]; cumulative i.v. WAY 100635 200 μg/kg, 3-day RS 67333 1.5 mg/kg/day) | firing activity of CA3 pyramidal neurons after WAY 100635 ([1]; cumulative i.v. WAY 100635 300 μg/kg, 3-day RS 67333 1.5 mg/kg/day) | firing activity of CA3 pyramidal neurons after WAY 100635 [1, 3] | inhibition at 1 mg/kg ([2]; Rattus norvegicus, Pyramidal neuron, iv, Discussion) [%] | discharge of inhibited CA3 pyramidal neurons ([2]; naïve rats, the 17 inhibited neurons) | share of recorded pyramidal neurons inhibited ([2]; 17 of 38 neurons) |
| --- | --- | --- | --- | --- | --- | --- | --- | --- | --- |
| CCCCN1CCC(CCC(=O)c2cc(Cl)c(N)cc2OC)CC1 [RS 67333, 1-(4-amino-5-chloro-2-methoxyphenyl)-3-(1-n-burtl-4-piperidinyl)-1-propanone] | up to 440 % of pre-drug values | −4 to −6 | strong tonic inhibition | 276 (±52) % of basal values | 378 (±43) % of basal values | 445 (±60) % of baseline |  |  |  |
| COCCCN1CCC(NC(=O)c2cc(Cl)c(N)c3c2OCC3)CC1 [prucalopride] |  |  | modest inhibitory tonus |  |  | 191 (±31) % of baseline | ~50 | 46 (±5.6) % of pre-drug values | 45 % of total |
